Measurements published in patent US20180228728A1, “DOSAGE FORM FOR ADMINISTRATION OF OPIOID ANTAGONISTS” (priority 2017, published 2018).

Tested on: cultured human gingival tissues
Assay type: in vitro ADME
Conditions: as excipient in naloxone ODF
Description: Each ODF sample was die-cut into 1 inch (2.54 cm) diameter discs (area, 5.067 cm^2). To simulate the oral mucosa, an in vitro oral mucosa 3D model produced from primary human gingival keratinocytes was used (SkinAxis, LLC, North Brunswick, N.J., USA). Briefly, the cultured human gingival tissues were incubated in 6-well plates at 37° C. in a CO2 incubator. To prepare the receiver fluid, 0.3 mL of prewarmed phosphate buffered solution at pH 6.8 was pipetted into each well. Next, 0.5 mL of donor solution or the die-cut discs were placed onto the tissues. The plates were returned to the incubator for 15 minutes. The tissues were moved to the next wells and the receiver media was collected. This was repeated for the remaining time points. The receiver media was analyzed by HPLC in a 5 μm, 4.6×50 mm KINETEX C18 column (Phenomenex, Inc., Torrance, Calif., USA) using art standard protocols. Briefly, the mobile phase comprised 50 mM NH4Ac/Acetonitrile at 88/22. The flow rate was 1.0 mL/min and the column temperature was about 40° C. with a UV of 220 nm and a retention time of 1.8 min.

CCCCCCCC/C=C\CCCCCCCCO [oleyl alcohol, Oleyl alcohol]
effect of permeation enhancer on permeation percentage of the naloxone: increased the permeation percentage of the naloxone
